Experimental findings from patent US12252488B2 (Nimbus Saturn, Inc., priority 2021, dated 2025) are described below.

T1 sequence (Q92918 whole entry): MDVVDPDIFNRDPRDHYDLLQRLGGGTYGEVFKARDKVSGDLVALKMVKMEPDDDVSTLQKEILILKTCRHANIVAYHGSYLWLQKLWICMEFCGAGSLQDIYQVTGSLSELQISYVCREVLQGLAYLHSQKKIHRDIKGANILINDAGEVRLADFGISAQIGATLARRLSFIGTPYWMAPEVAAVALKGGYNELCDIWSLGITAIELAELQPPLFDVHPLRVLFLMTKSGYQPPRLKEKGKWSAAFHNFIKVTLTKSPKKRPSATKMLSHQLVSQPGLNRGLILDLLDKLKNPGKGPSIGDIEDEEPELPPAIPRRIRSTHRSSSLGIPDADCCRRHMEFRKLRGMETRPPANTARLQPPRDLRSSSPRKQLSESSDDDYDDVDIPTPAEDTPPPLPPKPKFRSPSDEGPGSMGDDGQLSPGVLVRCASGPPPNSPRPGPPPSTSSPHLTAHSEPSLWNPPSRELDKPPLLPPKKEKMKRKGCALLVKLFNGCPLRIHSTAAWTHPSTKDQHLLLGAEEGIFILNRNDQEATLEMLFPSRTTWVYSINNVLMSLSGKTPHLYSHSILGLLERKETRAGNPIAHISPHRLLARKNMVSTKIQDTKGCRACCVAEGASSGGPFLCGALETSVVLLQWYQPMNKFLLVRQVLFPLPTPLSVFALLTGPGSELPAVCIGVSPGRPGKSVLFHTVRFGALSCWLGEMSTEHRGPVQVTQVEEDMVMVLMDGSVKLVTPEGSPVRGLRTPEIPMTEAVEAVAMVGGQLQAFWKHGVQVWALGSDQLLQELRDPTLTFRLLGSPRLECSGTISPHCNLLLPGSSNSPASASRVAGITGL

The test concerns the target T1, HPK1 (Homo sapiens, UniProt Q92918).
T1 construct: purchased Invitrogen
Kind of test: HPK1 biochemical enzyme assay (microfluidic mobility shift assay). The note with it: 1000 uM (1 mM) ATP; Caliper mobility shift; 1.5 nM HPK1; 30 min preincubation; read-out: HPK1 1000UMATP caliper IC50. Put shortly: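 IC50 values, grouped into activity categories, come from 10-point titrations (top final 3 μM) preincubated 30 min with 1.5 nM enzyme and substrate at pH 7.4. ATP (1 mM), substrate (1 μM) and MgCl2 (5 mM) then added; after 60 min at RT, product separated by microfluidic mobility shift.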
As usually defined, the IC50 is the concentration that gives 50% inhibition. As to `O=C(c1ccc(-c2cc(Nc3ccc(N4CCC(O)CC4)cn3)c3c(=O)[nH]ccc3n2)c(F)c1)N1CCCC1CO` (stereo not shown) [I-147, 2-[2-fluoro-4-[2-(hydroxy-methyl)pyrrolidine-1-carbonyl]phenyl]-4-[[5-(4-hydroxy-1-piperidyl)-2-pyridyl]amino]-6H-1,6-naphthyridin-5-one], the IC50 is 100 to 1000 nM.
In the case of `CC(C)c1cc(Nc2ccc(S(C)(=O)=O)cn2)c2c(=O)[nH]ccc2n1` [I-23, 2-isopropyl-4-[(5-methyl-sulfonyl-2-pyridyl)amino]-6H-1,6-naphthyridin-5-one], the IC50 was in the range of 100 to 1000 nM.
Take `CN1CCN(c2ccc(Nc3cc(-c4ccc(C(=O)N5CC6CCC5CC6)cc4F)nc4cc[nH]c(=O)c34)nc2)CC1` [I-278, 2-[4-(3-azabicyclo [2.2.2]octane-3-carbonyl)-2-fluoro-phenyl]-4-[[5-(4-methyl-piperazin-1-yl)-2-pyridyl]amino]-6H-1,6-naphthyridin 5-one]: the IC50 lay in the range of 100 to 1000 nM.
Turning to `O=C(c1ccc(F)c(-c2cc(Nc3ccc(N4CCC(O)CC4)cn3)c3c(=O)[nH]ccc3n2)c1)N1CCOCC1` [I-80, 2-[2-fluoro-5-(morpholine-4-carbonyl)phenyl]-4-[[5-(4-hydroxy-1-piperidyl)-2-pyridyl]amino]-6H-1,6-naphthyridin-5-one], the IC50 is 100 to 1000 nM.
`CC(C)c1ccc(F)c(-c2cc(Nc3ccc(N4CCC5(CCOCC5)CC4)cn3)c3c(=O)[nH]ccc3n2)c1` [I-121, 2-(2-fluoro-5-isopropyl-phenyl)-4-[[5-(3-oxa-9-azaspiro [5.5]undecan-9-yl)-2-pyridyl]amino]-6H-1,6-naphthyridin-5-one]: the IC50 was at most 100 nM.
For `O=c1[nH]ccc2nc(-c3cc(C4CC4)ccc3F)cc(Nc3ccc(N4CCC(O)CC4)cn3)c12` [I-43, 2-(5-cyclopropyl-2-fluoro-phenyl)-4-[[5-(4-hydroxy-1-piperidyl)-2-pyridyl]amino]-6H-1,6-naphthyridin-5-one] the value was at most 100 nM; for `COCCOC1CN(c2ccc(Nc3cc(-c4cc(OC)c(C(=O)N5CCCCC5)cc4F)nc4cc[nH]c(=O)c34)nc2)C1` [I-188, 2-[2-fluoro-5-methoxy-4-(piperidine-1-carbonyl)phenyl]-4-[[5-[3-(2-methoxy-ethoxy)azetidin-1-yl]-2-pyridyl]amino]-6H-1,6-naphthyridin-5-one], at most 100 nM.
For `CC(O)(c1ccc(F)c(-c2cc(Nc3ccc(N4CCC(O)CC4)cn3)c3c(=O)[nH]ccc3n2)c1)C(F)(F)F` (stereo not shown) [I-123, 2-[2-fluoro-5-(2,2,2-trifluoro-1-hydroxy-1-methyl-ethyl)phenyl]-4-[[5-(4-hydroxy-1-piperidyl)-2-pyridyl]amino]-6H-1,6-naphthyridin-5-one] the value was at most 100 nM; for `CN(C(=O)C1CC1)c1ccc(-c2cc(Nc3ccc(N4CCC(O)CC4)cn3)c3c(=O)[nH]ccc3n2)c(F)c1` [I-108, N-[3-fluoro-4-[4-[[5-(4-hydroxy-1-piperidyl)-2-pyridyl]amino]-5-oxo-6H-1,6-naphthyridin-2-yl]phenyl]-N-methyl-cyclopropane-carboxamide], at most 100 nM.
As to `CC(=O)c1cc(Nc2ccc(N3CCC(O)CC3)cn2)c2c(=O)[nH]ccc2n1` [I-47, 2-acetyl-4-[[5-(4-hydroxy-1-piperidyl)-2-pyridyl]amino]-6H-1,6-naphthyridin-5-one], the IC50 is at most 100 nM.
For the compound `COc1cc(-c2cc(Nc3ccc(N4CCC(OC)CC4)cn3)c3c(=O)[nH]ccc3n2)c(F)cc1C(=O)N1CCCCC1` [I-209, 2-[2-fluoro-5-methoxy-4-(piperidine-1-carbonyl)phenyl]-4-[[5-(4-methoxy-1-piperidyl)-2-pyridyl]amino]-6H-1,6-naphthyridin-5-one], the IC50 was in the range of 100 to 1000 nM.
For the compound `O=c1[nH]ccc2nc(-c3cc4c(cc3F)CCC4N3CC4(CCOC4)C3)cc(Nc3ccc(N4CCC(O)CC4)cn3)c12` (stereo not shown) [I-260, 2-[6-fluoro-3-(6-oxa-2-azaspiro [3.4]octan-2-yl)indan-5-yl]-4-[[5-(4-hydroxy-1-piperidyl)-2-pyridyl]amino]-6H-1,6-naphthyridin-5-one], the IC50 was in the range of 100 to 1000 nM.
In the case of `Cc1c[nH]c(=O)c2c(Nc3ccc(N4CCC(O)CC4)cn3)cc(-c3ccc(C(=O)N4CCCCC4)cc3F)nc12` [I-146, 2-[2-fluoro-4-(piperidine-1-carbonyl)phenyl]-4-[[5-(4-hydroxy-1-piperidyl)-2-pyridyl]amino]-8-methyl-6H-1,6-naphthyridin-5-one], the half-maximal inhibitory concentration (IC50) lay in the range of 100 to 1000 nM.
For `CC(C)Oc1ccc(F)c(-c2cc(Nc3ccc(N4CCC(O)CC4)cn3)c3c(=O)[nH]ccc3n2)c1` [I-67, 2-(2-fluoro-5-isopropoxy-phenyl)-4-[[5-(4-hydroxy-1-piperidyl)-2-pyridyl]amino]-6H-1,6-naphthyridin-5-one] the value was 100 to 1000 nM; for `CN(C)C1CCc2cc(-c3cc(Nc4ccc(N5CCC(O)CC5)cn4)c4c(=O)[nH]ccc4n3)c(F)cc21` (stereo not shown) [I-238, 2-[1-(dimethyl-amino)-6-fluoro-indan-5-yl]-4-[[5-(4-hydroxy-1-piperidyl)-2-pyridyl]amino]-6H-1,6-naphthyridin-5-one], 100 to 1000 nM; for `CCC(CC)c1cc(Nc2ccc(N3CCC(O)CC3)cn2)c2c(=O)[nH]ccc2n1` [I-32, 2-(1-ethylpropyl)-4-[[5-(4-hydroxy-1-piperidyl)-2-pyridyl]amino]-6H-1,6-naphthyridin-5-one], 100 to 1000 nM.
For `COC1CCN(C(=O)c2ccc(-c3cc(Nc4ccc(N5CCC(O)CC5)cn4)c4c(=O)[nH]ccc4n3)c(F)c2)CC1` [I-136, 2-[2-fluoro-4-(4-methoxy-piperidine-1-carbonyl)phenyl]-4-[[5-(4-hydroxy-1-piperidyl)-2-pyridyl]amino]-6H-1,6-naphthyridin-5-one] the value was at most 100 nM.
In the case of `Cc1nc2cc(-c3cc(Nc4ccc(N5CCNCC5)cn4)c4c(=O)[nH]ccc4n3)c(F)cc2o1` [I-178, 2-(6-fluoro-2-methyl-1,3-benzoxazol-5-yl)-4-[(5-piperazin-1-yl-2-pyridyl)amino]-6H-1,6-naphthyridin-5-one], the IC50 was in the range of 100 to 1000 nM.
`CC1(Cc2cc(Nc3ccc(N4CCC(O)CC4)cn3)c3c(=O)[nH]ccc3n2)COC1` [I-54, 4-[[5-(4-hydroxy-1-piperidyl)-2-pyridyl]amino]-2-[(3-methyl-oxetan-3-yl)methyl]-6H-1,6-naphthyridin-5-one]: the half-inhibitory concentration (IC50) was in the range of 100 to 1000 nM.
For `CC(C)c1ccc(F)c(-c2cc(Nc3ccc(N4[C@@H](C)COC[C@@H]4C)cn3)c3c(=O)[nH]ccc3n2)c1` [I-129, 4-[[5-[(3S,5S)-3,5-dimethyl-morpholin-4-yl]-2-pyridyl]amino]-2-(2-fluoro-5-isopropyl-phenyl)-6H-1,6-naphthyridin-5-one], the half-maximal inhibitory concentration (IC50) was in the range of 100 to 1000 nM.
With `CC(O)(c1cc(Nc2ccc(N3CCC(O)CC3)cn2)c2c(=O)[nH]ccc2n1)C(F)(F)F` (stereo not shown) [I-77, 4-[[5-(4-hydroxy-1-piperidyl)-2-pyridyl]amino]-2-(2,2,2-trifluoro-1-hydroxy-1-methyl-ethyl)-6H-1,6-naphthyridin-5-one], the IC50 was 100 to 1000 nM.
Take `CNCc1ccc(F)c(-c2cc(Nc3ccc(N4CCC(O)CC4)cn3)c3c(=O)[nH]ccc3n2)c1` [I-217, 2-[2-fluoro-5-(methyl-amino-methyl)phenyl]-4-[[5-(4-hydroxy-1-piperidyl)-2-pyridyl]amino]-6H-1,6-naphthyridin-5-one]: the IC50 lay within 100 to 1000 nM.
For the compound `O=C(Nc1ccc(-c2cc(Nc3ccc(C4CCOC4)cn3)c3c(=O)[nH]ccc3n2)c(F)c1)C1CCCCC1` (single isomer, unassigned) [I-267, N-[3-fluoro-4-[5-oxo-4-[(5-THF-3-yl-2-pyridyl)amino]-6H-1,6-naphthyridin-2-yl]phenyl] cyclohexane carboxamide], the IC50 was at most 100 nM.
In the case of `Cc1ccc(F)c(-c2cc(Nc3ccc(N4CCC(O)CC4)cn3)c3c(=O)[nH]ccc3n2)c1` [I-4I], the IC50 is above 1000 nM.
Regarding `CNC(=O)c1ccc(-c2cc(Nc3ccc(N4CCC(O)CC4)cn3)c3c(=O)[nH]ccc3n2)c(F)c1` [I-70, 3-fluoro-4-[4-[[5-(4-hydroxy-1-piperidyl)-2-pyridyl]amino]-5-oxo-6H-1,6-naphthyridin-2-yl]-N-methyl-benzamide], the IC50 is 100 to 1000 nM.
As for `COc1cc(-c2cc(Nc3ccc(N4CCC(O)CC4)cn3)c3c(=O)[nH]ccc3n2)ccc1C(=O)N1CCCCC1` [I-195, 4-[[5-(4-hydroxy-1-piperidyl)-2-pyridyl]amino]-2-[3-methoxy-4-(piperidine-1-carbonyl)phenyl]-6H-1,6-naphthyridin-5-one], the IC50 was above 1000 nM.
As for `CN(C)C1CCc2c1ccc(-c1cc(Nc3ccc(N4CCC(O)CC4)cn3)c3c(=O)[nH]ccc3n1)c2F` (stereo not shown) [I-237, 2-[1-(dimethyl-amino)-4-fluoro-indan-5-yl]-4-[[5-(4-hydroxy-1-piperidyl)-2-pyridyl]amino]-6H-1,6-naphthyridin-5-one], the 50% inhibitory concentration (IC50) lay in the range of 100 to 1000 nM.
Consider `O=c1[nH]ccc2nc(C3CCOCC3)cc(Nc3ccc(N4CCC(O)CC4)cn3)c12` [I-36, 4-[[5-(4-hydroxy-1-piperidyl)-2-pyridyl]amino]-2-tetrahydropyran-4-yl-6H-1,6-naphthyridin-5-one], for which the IC50 is at most 100 nM.
As for `Cc1c[nH]nc1-c1cc(Nc2ccc(N3CCC(O)CC3)cn2)c2c(=O)[nH]ccc2n1` [I-283, 4-[[5-(4-hydroxy-1-piperidyl)-2-pyridyl]amino]-2-(4-methyl-1H-pyrazol-3-yl)-6H-1,6-naphthyridin-5-one], the IC50 is at most 100 nM.
For `COc1ccc(F)c(-c2cc(Nc3ccc(N4CCC(O)CC4)cn3)c3c(=O)[nH]ccc3n2)c1F` [I-92, 2-(2,6-difluoro-3-methoxyphenyl)-4-((5-(4-hydroxypiperidin-1-yl)pyridin-2-yl)amino)-1,6-naphthyridin-5(6H)-one] the value was 100 to 1000 nM; for `O=c1[nH]ccc2nc(N3CCC4(CCCNC4)CC3)cc(Nc3ccc(N4CCC(O)CC4)cn3)c12` [I-239, 2-(2,9-diazaspiro [5.5]undecan-9-yl)-4-[[5-(4-hydroxy-1-piperidyl)-2-pyridyl]amino]-6H-1,6-naphthyridin-5-one], 100 to 1000 nM.
